Data on seven compounds can be found in ChEMBL document CHEMBL3352506, “Betulin derivatives impair Leishmania braziliensis viability and host-parasite interaction” (Bioorg Med Chem, 2014).

The source made the active and inactive calls. The calls are words filed in the database; no cut-off is given here. Bounds are passed on as bounds.

For series [1], the system named is Leishmania braziliensis. Put plainly: Antiparasitic activity against Leishmania braziliensis assessed as inhibition of infection with mouse J774.A1 cells measured as 5 to 10 parasites per cell at 1 uM after 4 hrs. In kind it is functional. More on the design: scale not given: the % may be the effect or the level left.
Series [2] has as its system Leishmania braziliensis. Briefly: Antiparasitic activity against Leishmania braziliensis assessed as inhibition of infection with mouse J774.A1 cells measured as >10 parasites per cell at 1 uM after 4 hrs. More on the design: scale not given: the % may be the effect or the level left. The format is functional.
The test system of series [3] is Leishmania braziliensis. Put plainly: Antiparasitic activity against Leishmania braziliensis assessed as inhibition of infection with mouse J774.A1 cells measured infected cells at 1 uM after 4 hrs. The format is functional. On the set-up: scale not given: the % may be the effect or the level left.
For series [4], the system named is Leishmania braziliensis. Put plainly: Antiparasitic activity against Leishmania braziliensis assessed as inhibition of infection with mouse J774.A1 cells measured as <5 parasites per cell at 1 uM after 4 hrs. The format is functional. More on the design: scale not given: the % may be the effect or the level left.
Series [5] has as its system Leishmania braziliensis. Put plainly: Antiparasitic activity against Leishmania braziliensis assessed as inhibition of infection with mouse J774.A1 cells measured attached parasites at 1 uM after 4 hrs. More on the design: scale not given: the % may be the effect or the level left. The format is functional.
The nature of series [6]: Selectivity index, ratio of IC50 for mouse J774.A1 cells to IC50 for Leishmania braziliensis. The format is toxicity, cell-based. The conditions noted are these: J774.A1 cells versus Leishmania braziliensis, read-out: Ratio IC50.
In series [7] the test system is Leishmania braziliensis. Put plainly: Leishmanicidal activity against Leishmania braziliensis assessed as dead cells at 10^-12 to 10^-7 M after 30 mins by chemotactic assay. The format is functional, organism-based.
Series [8] has as its system Leishmania braziliensis. Put plainly: Leishmanicidal activity against Leishmania braziliensis assessed as dead cells at 10^-6 M after 30 mins by chemotactic assay. The conditions noted are these: 0.5 h. In kind it is functional.
Series [9] concerns Leishmania braziliensis. Put plainly: Antiparasitic activity against Leishmania braziliensis assessed as inhibition of growth after 72 hrs. The format is functional, organism-based.
The test system of series [10] is Leishmania braziliensis. Put plainly: Antiparasitic activity against Leishmania braziliensis assessed as inhibition of growth after 72 hrs at 10 uM. In kind it is functional.
Series [11] relates to J774.A1. Briefly: Cytotoxicity against mouse J774.A1 cells. In kind it is cell-based.
For series [12], the system named is Leishmania braziliensis. Briefly: Antiparasitic activity against Leishmania braziliensis assessed as inhibition of infection with mouse J774.A1 cells measured as >10 parasites per cell at 1 x 10^-8 M after 4 hrs. In kind it is functional. On the set-up: scale not given: the % may be the effect or the level left.
Series [13] has as its system Leishmania braziliensis. Put plainly: Antiparasitic activity against Leishmania braziliensis assessed as inhibition of infection with mouse J774.A1 cells measured infected cells […] at 1 x 10^-9 M after 4 hrs. In kind it is functional. On the set-up: scale not given: the % may be the effect or the level left.
Series [14] relates to Leishmania braziliensis. Put plainly: Antiparasitic activity against Leishmania braziliensis assessed as inhibition of infection with mouse J774.A1 cells measured as <5 parasites per cell at 1 x 10^-8 M after 4 hrs. In kind it is functional. On the set-up: scale not given: the % may be the effect or the level left.
The test system of series [15] is Leishmania braziliensis. Put plainly: Antiparasitic activity against Leishmania braziliensis assessed as inhibition of infection with mouse J774.A1 cells measured as 5 to 10 parasites per cell at 1 x 10^-9 M after 4 hrs. In kind it is functional. More on the design: scale not given: the % may be the effect or the level left.
In series [16] the test system is Leishmania braziliensis. Put plainly: Antiparasitic activity against Leishmania braziliensis assessed as inhibition of infection with mouse J774.A1 cells measured attached parasites at 1 x 10^-8 M after 4 hrs. In kind it is functional. On the set-up: scale not given: the % may be the effect or the level left.
Series [17] deals with Leishmania braziliensis. Briefly: Antiparasitic activity against Leishmania braziliensis assessed as inhibition of infection with mouse J774.A1 cells measured as >10 parasites per cell at 1 x 10^-9 M after 4 hrs. In kind it is functional. More on the design: scale not given: the % may be the effect or the level left.
Series [18] has as its system Leishmania braziliensis. Put plainly: Antiparasitic activity against Leishmania braziliensis assessed as inhibition of infection with mouse J774.A1 cells measured as <5 parasites per cell at 1 x 10^-7 M after 4 hrs. In kind it is functional. On the set-up: scale not given: the % may be the effect or the level left.
Series [19] relates to Leishmania braziliensis. Put plainly: Antiparasitic activity against Leishmania braziliensis assessed as inhibition of infection with mouse J774.A1 cells measured attached parasites at 1 x 10^-9 M after 4 hrs. More on the design: scale not given: the % may be the effect or the level left. The format is functional.
Series [20] has as its system Leishmania braziliensis. Briefly: Antiparasitic activity against Leishmania braziliensis assessed as inhibition of infection with mouse J774.A1 cells measured as 5 to 10 parasites per cell at 1 x 10^-8 M after 4 hrs. In kind it is functional. More on the design: scale not given: the % may be the effect or the level left.
In series [21] the test system is Leishmania braziliensis. Briefly: Antiparasitic activity against Leishmania braziliensis assessed as inhibition of infection with mouse J774.A1 cells measured as <5 parasites per cell at 1 x 10^-9 M after 4 hrs. In kind it is functional. On the set-up: scale not given: the % may be the effect or the level left.
Series [22] deals with Leishmania braziliensis. Put plainly: Antiparasitic activity against Leishmania braziliensis assessed as inhibition of infection with mouse J774.A1 cells measured infected cells […] at 1 x 10^-7 M after 4 hrs. In kind it is functional. More on the design: scale not given: the % may be the effect or the level left.
Series [23] deals with Leishmania braziliensis. Put plainly: Antiparasitic activity against Leishmania braziliensis assessed as inhibition of infection with mouse J774.A1 cells measured as >10 parasites per cell at 1 x 10^-7 M after 4 hrs. The format is functional. More on the design: scale not given: the % may be the effect or the level left.
Series [24] relates to Leishmania braziliensis. Put plainly: Antiparasitic activity against Leishmania braziliensis assessed as inhibition of infection with mouse J774.A1 cells measured attached parasites at 1 x 10^-7 M after 4 hrs. The format is functional. More on the design: scale not given: the % may be the effect or the level left.
The subject of series [25] is Leishmania braziliensis. Briefly: Antiparasitic activity against Leishmania braziliensis assessed as inhibition of infection with mouse J774.A1 cells measured infected cells […] at 1 x 10^-8 M after 4 hrs. In kind it is functional. On the set-up: scale not given: the % may be the effect or the level left.
For series [26], the system named is Leishmania braziliensis. Put plainly: Antiparasitic activity against Leishmania braziliensis assessed as inhibition of infection with mouse J774.A1 cells measured as 5 to 10 parasites per cell at 1 x 10^-7 M after 4 hrs. More on the design: scale not given: the % may be the effect or the level left. The format is functional.
The subject of series [27] is Leishmania braziliensis. Put plainly: Leishmanicidal activity against Leishmania braziliensis assessed as reduction in parasite migration at 10^-6 M after 30 mins by chemotactic assay. In kind it is functional, organism-based.

Regarding `C[C@@H]1[C@H](O)[C@@H](C)/C=C/C=C/C=C/C=C/C=C/C=C/C=C/[C@H](O[C@@H]2O[C@H](C)[C@@H](O)[C@H](N)[C@@H]2O)C[C@@H]2O[C@](O)(C[C@@H](O)C[C@@H](O)[C@H](O)CC[C@@H](O)C[C@@H](O)CC(=O)O[C@H]1C)C[C@H](O)[C@H]2C(=O)O` [AMPHOTERICIN B], the Activity in [1] is recorded as 21.45%; in series [2], 7.15%; in [3] it was 15.2%; in [4], 71.51%; in [5], 41.3%.

`C=C(C)[C@@H]1CC[C@]2(/C=N/O)CC[C@]3(C)[C@H](CC[C@@H]4[C@@]5(C)CC/C(=N\O)C(C)(C)[C@@H]5CC[C@]43C)[C@@H]12` [BETULIN-3,28-DIOXIME]: in series [6], the selectivity ratio is above 3. The Activity entry in [7] was “Dose-dependent effect”. Besides, the inhibition at 1 µM in series [8] came out at 25%. Further, the IC50 in series [9] is 3.35 µM; in series [11] it was above 10 µM. Further, the inhibition at 10 µM in [10] is 50%.

Turning to `CC(C)[C@@]12CC[C@]3(COC=O)CC[C@]4(C)C(=C31)C(C[C@@H]1[C@@]3(C)CC[C@H](OC=O)C(C)(C)[C@@H]3CC[C@]14C)n1c(=O)n(C)c(=O)n12` (some centres undefined), the selectivity ratio in [6] is above 40. Moreover, the Activity entry in series [7] is “Dose-dependent effect”; in [12], 4.78%; in series [13], 10.3%; in series [14] it was 59.79%; in [15] it was 15.86%; in series [16], 46.6%. Further, the Activity is reported as 6.34% in series [17]; 61.91% in series [18]; 55% in series [19]; 31.09% in series [20]; 76.14% in series [21]; 17.7% in [22]. For the same compound, the Activity was determined as 3.86% in series [23], 59% in series [24], 13.4% in [25] and 25.15% in [26]. The inhibition at 1 µM in series [8] worked out at 25%. For the same compound, the 50% inhibitory concentration (IC50) in series [9] is 0.25 µM; in series [11], above 10 µM.

For the compound `C=C(C)[C@@H]1CC[C@]2(C(=O)O)CC[C@]3(C)[C@H](CC[C@@H]4[C@@]5(C)CCC(=O)C(C)(C)[C@@H]5CC[C@]43C)[C@@H]12` [BETUNOLIC ACID], in series [10], the inhibition at 10 µM worked out at 50%.

Take `CC(=O)OC[C@]12CC[C@]3(C(C)C)C1=C1C(C[C@@H]4[C@@]5(C)CC[C@H](OC(C)=O)C(C)(C)[C@@H]5CC[C@@]4(C)[C@]1(C)CC2)n1c(=O)n(C)c(=O)n13` (some centres undefined): the inhibition at 10 µM in [10] came out at 50%.

As to `C=C(C)[C@@H]1CC[C@]2(/C=N/O)CC[C@]3(C)[C@H](CC[C@@H]4[C@@]5(C)CC[C@H](O)C(C)(C)[C@@H]5CC[C@]43C)[C@@H]12`, the selectivity ratio in [6] is above 2.5. In series [8], the inhibition at 1 µM worked out at 66%. In addition, in series [27], the outcome was Active. Moreover, the values for the IC50 in [9] and in [11] were 4.12 µM and above 10 µM, respectively. Moreover, the inhibition at 10 µM in series [10] came to 50%.

Consider `CC(C)[C@@]12CC[C@]3(C=O)CC[C@]4(C)C(=C31)C(C[C@@H]1[C@@]3(C)CC[C@H](O)C(C)(C)[C@@H]3CC[C@]14C)n1c(=O)n(C)c(=O)n12` (some centres undefined), for which the selectivity ratio in [6] is above 5. In [8], the inhibition at 1 µM was 25%. Besides, the Activity in [12] worked out at 7.29%; in series [13] it was 14.4%; in [14], 90.02%; in series [15], 15.93%; in series [16], 56.7%; in series [17], 6.83%. In addition, the Activity stood at 84.09% in series [18]; 50% in series [19]; 9.73% in series [20]; 77.41% in series [21]; 12.7% in series [22]; 5.09% in [23]. For the same compound, the values for the Activity in [24], in series [25] and in series [26] were 62.3%, 13.7% and 5.09%, respectively. Further, the outcome in series [27] was Active. Also, the IC50 in series [9] is 2.06 µM; in series [11], above 10 µM.
